Measured values: publication PMC3903478, “Expression and Properties of the Highly Alkalophilic Phenylalanine Ammonia-Lyase of Thermophilic Rubrobacter xylanophilus” (PLoS ONE, 2014)

Biological target: T1, RxPAL (phenylalanine ammonia-lyase of Rubrobacter xylanophilus) (Rubrobacter xylanophilus, UniProt Q1AV79)
T1 construct: gene Rxyl_1739; full length (540 AA), N-terminal His6-tag kept, codon-optimised synthetic gene in pBAD-HisB, expressed in E. coli TOP10, Ni-NTA purified; MIO prosthetic group formed from ASG
T1 sequence (Q1AV79 entry or part of it): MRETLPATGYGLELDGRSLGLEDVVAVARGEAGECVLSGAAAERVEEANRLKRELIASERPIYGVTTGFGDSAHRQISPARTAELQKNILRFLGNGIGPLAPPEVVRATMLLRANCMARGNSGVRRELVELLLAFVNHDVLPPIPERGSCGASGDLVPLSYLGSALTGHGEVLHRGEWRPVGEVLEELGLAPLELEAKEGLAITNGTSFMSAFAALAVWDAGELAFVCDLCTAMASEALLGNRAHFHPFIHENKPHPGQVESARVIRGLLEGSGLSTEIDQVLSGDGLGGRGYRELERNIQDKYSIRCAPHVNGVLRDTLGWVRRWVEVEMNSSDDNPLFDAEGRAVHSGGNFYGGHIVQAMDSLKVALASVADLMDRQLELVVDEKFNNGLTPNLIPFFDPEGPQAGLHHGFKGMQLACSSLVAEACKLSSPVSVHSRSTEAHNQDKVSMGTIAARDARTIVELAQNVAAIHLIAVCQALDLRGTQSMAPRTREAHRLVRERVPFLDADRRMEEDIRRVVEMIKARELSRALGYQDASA
Experiment: UV spectrophotometry at […] nm, cinnamic acid formation
Assay type: biochemical
Details: 20 mM L-phenylalanine, 0.1 M buffers pH 4.0-12, ionic strength 250 mM

How did the “UV spectrophotometry at 290 nm, cinnamic acid formation” value turn out when `N[C@@H](Cc1ccccc1)C(=O)O` [L-phenylalanine] was run?
The value was “Progress of ammonia elimination from L-phenylalanine was monitored by detection of (E)-cinnamic acid production”.
